In data set [1] the target is T1, ftFliB (FleBt-FliB) (Salmonella enterica, UniProt Q56106). The data set is described as follows: biochemical.
Data set [2] addresses T1, ftFliB (FleBt-FliB). In words: UV-vis, EPR, […] Mössbauer, iron and sulfur content. In kind it is binding. On the set-up: N-terminal His6 and Yersinia enterocolitica FleB residues 54-332 (FleBt) solubility tag kept, fused to FliB; E. coli BL21(DE3); ~76 kDa; about 14-mer. The settings on record: anaerobically reconstituted protein; CX4CX3CC motif.
Data set [3] deals with the molecule itself. The data set is described as follows: SEC-MALS; TSK-GEL BioAssist G4SWXL column, buffer A, 0.5 mL/min; MALS with RI and UV 280 nm detectors. (Size exclusion chromatography separates by hydrodynamic size, large species first.)

In turn, `C[S+](CC[C@H](N)C(=O)O)C[C@H]1O[C@@H](n2cnc3c(N)ncnc32)[C@H](O)[C@@H]1O` (stereo partly drawn) [SAM, S-adenosylmethionine] gave a Kd in data set [1] of 10.5 ± 3.41 µM.

In the case of `[S]12[Fe]3[S]4[Fe]1[S]1[Fe]2[S]3[Fe]41` [[4Fe-4S] cluster], the “UV-vis, EPR, 57Fe Mössbauer, iron and sulfur content” value in data set [2] is “indicating the presence of one [4Fe-4S] cluster in FliB”.

B1: FleBt-FliB fusion protein (flagellin lysine methyltransferase FliB fused to the C-terminus of truncated FleB) (enzyme)
chain: MKEITVTEPAFVTRFSCSGSACRDHCCKGWKITLDKTTVKKYLASKDTTIRTIAQDHIILLKKNNSHWGEIKLPSALGNCPYLDEDRLCRVQKTLGAKALSHTCSSFPRAHHTYKNEVRNSLSLACPEVTSRILNDPDAMALSEKTIIQQTFNTAPLFPAQQKLLNLFCLSLINHANSSTEAALYALIKFVMYAQKFAKIDDAALGELEQVYAALLEQLQTGVLAQELMNIAPDSKVKTSLVLQMQDYFRSLPLNRGSVILDHYIQCLLRVLTAEEGVSMEQKVSDIESSLARCLQANEQQKNWAFRNLILYKIWENNFPNQPNVDPLRALYIIVAEYAFIKLLTAASVHERGRIEWDDVTNIVYSFHSRSQHNSEVAKNFHRHIETVRTGDDLSMIHLLT
notes: also called ftFliB; source: E. coli BL21 (DE3), purified (HisTrap HP, SEC); copies: 14
Consider B1, for which the “stoichiometry N” value in data set [3] was about 14 subunits per oligomer.

One may read the Kd as the constant that tells how readily two partners part at equilibrium. Read a high Kd as lower affinity. Usually stoichiometry N stands for the number of molecules, sites or subunits per partner or assembly.

The values above are taken from publication PMC8598068, “Flagellin lysine methyltransferase FliB catalyzes a [4Fe-4S] mediated methyl transfer reaction” (PLoS Pathogens, 2021).
